For assay [1], the system named is Human breast cancer cell line T-47D. Nature of the assay: Caspase cascade activation assay (N-(Ac-DEVD)-N'-ethoxycarbonyl-R110 fluorogenic substrate) in T-47D cells. In kind it is cell-based. The settings on record: for Caspase activity (Ratio) T-47D: 24 h incubation with compound, ratio of net RFU (T=3 h) of test compound to control; for EC50: 24 h incubation, sigmoidal dose-response, read-out: Caspase potency EC50 (nM) T-47D. Summed up: (§1)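 Cells were exposed for 24 h at 37 °C to test compound at 0.016–1 μM final. Lysed with lysolecithin buffer (pH 7.2, DTT) containing 20 μM Ac-DEVD-R110 substrate, and fluorescence (ex 485/em 530 nm) read at 0 and 3 h at room temperature. EC50 from sigmoidal fit of net RFU ratio to control.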

Assay [2] concerns Human breast cancer cell line ZR-75-1. The assay can be described thus: Caspase cascade activation assay (N-(Ac-DEVD)-N'-ethoxycarbonyl-R110 fluorogenic substrate) in ZR-75-1 cells. In kind it is cell-based. The settings on record: ZR-75-1 cells; for Caspase activity (Ratio) ZR-75-1: 24 h incubation with compound, ratio of net RFU (T=3 h) of test compound to control; for EC50: 24 h incubation, sigmoidal dose-response, read-out: Caspase potency EC50 (nM) ZR-75-1. A digest of the protocol: as §1

Molecules are shown by their SMILES. Read-outs that look alike come from different tables or passages of the source. A value given as a limit tells only on which side of the number the result lay.

In general, EC50 refers to the concentration that produces a half-maximal response. `COc1cc(C2C(C#N)=C(N)Oc3cc(N4CCOCC4)ccc32)cc(Br)c1OC` (centres unmarked) [Example 66C, 2-Amino-3-cyano-7-N-morpholine-4-(3-bromo-4,5-dimethoxyphenyl)-4H-chromene]: in assay [1], the “Caspase activity (Ratio) T-47D” value is 10.4 and the EC50 turned out to be 166 nM. Further, in assay [2], the “Caspase activity (Ratio) ZR-75-1” value was 7.4 and the EC50 was found to be 86.8 nM.

For `COc1cc(C2C(C#N)=C(N)Oc3cc(-n4cccc4)ccc32)cc(Br)c1OC` (centres unmarked) [Example 67, 2-Amino-3-cyano-7-pyrrole-4-(3-bromo-4,5-dimethoxyphenyl)-4H-chromene], in assay [1], the “Caspase activity (Ratio) T-47D” value came out at 9.2 and the EC50 was found to be 349 nM. For the same compound, in assay [2], the “Caspase activity (Ratio) ZR-75-1” value is given as 6.9 and the EC50 came to 148 nM.

As to `COc1cc(C2(C)C(C#N)=C(N)Oc3cc(N(C)C)ccc32)cc(Br)c1OC` (centres unmarked) [Example 68A, 2-Amino-3-cyano-7-dimethylamino-4-(3-bromo-4,5-dimethoxyphenyl)-4-methylchromene], the “Caspase activity (Ratio) T-47D” value in assay [1] was found to be 6.8. The half-maximal effective concentration (EC50) in assay [1] (Homo sapiens, T47D, 24 h) amounted to 1980 nM; in assay [2] (Homo sapiens, ZR-75-1, 24 h) it was 1470 nM. In assay [2], the “Caspase activity (Ratio) ZR-75-1” value is recorded as 6.5.

On to `CC1(c2ccccc2)C(C#N)=C(N)Oc2ccccc21` (centres unmarked) [Example 68B, 2-Amino-3-cyano-4-phenyl-4-methylchromene], for which the “Caspase activity (Ratio) T-47D” value in assay [1] is 1.0. Besides, the EC50 was over 10000 nM in assay [1] (Homo sapiens, T47D, 24 h) and over 10000 nM in assay [2] (Homo sapiens, ZR-75-1, 24 h). Besides, the “Caspase activity (Ratio) ZR-75-1” value in assay [2] worked out at 1.8.

On to `C1CCNCC1.C1CCNCC1.COc1cc(C2C(C#N)=C(N)Oc3c2ccc2[nH]ccc32)cc(Br)c1OP(=O)(O)O` (centres unmarked) [Example 69, 2-Amino-3-cyano-4-(3-bromo-4-phosphoric acid-dipiperidine salt-5-methoxyphenyl)-4H-indolo[4,5-b]pyran], for which, in assay [1], the “Caspase activity (Ratio) T-47D” value worked out at 3.5 and the EC50 was 582 nM. Also, in assay [2], the “Caspase activity (Ratio) ZR-75-1” value was 5.6 and the EC50 came to 284 nM.

With `COc1cccc(C2C(C#N)=C(N)Sc3cc(OC)ccc32)c1` (centres unmarked) [Example 70, 2-Amino-3-cyano-7-methoxy-4-(3-methoxyphenyl)-4H-thiochromene], in assay [1], the “Caspase activity (Ratio) T-47D” value is 9.1. The EC50 in assay [1] (Homo sapiens, T47D, 24 h) came out at 90.7 nM; in assay [2] (Homo sapiens, ZR-75-1, 24 h) it was 45.3 nM. Moreover, the “Caspase activity (Ratio) ZR-75-1” value in assay [2] is given as 6.6.

For the compound `N#CC1=C(N)Nc2ccccc2C1c1ccccc1` (centres unmarked) [Example 71, 2-Amino-3-cyano-4-phenyl-1,4-dihydroquinoline], the “Caspase activity (Ratio) T-47D” value in assay [1] worked out at 3.1. Also, the EC50 in assay [1] (Homo sapiens, T47D, 24 h) turned out to be 7850 nM; in assay [2] (Homo sapiens, ZR-75-1, 24 h), 3720 nM. The “Caspase activity (Ratio) ZR-75-1” value in assay [2] came out at 4.1.

For the compound `COC(=O)C1=C(N)Oc2c(ccc3[nH]ccc23)C1c1cc(Br)c(OC)c(OC)c1` (centres unmarked) [Example 73], in assay [1], the “Caspase activity (Ratio) T-47D” value turned out to be 7.5 and the EC50 turned out to be 29.4 nM. For the same compound, in assay [2], the “Caspase activity (Ratio) ZR-75-1” value was 9.0 and the EC50 stood at 26.7 nM.

Regarding `COc1cc(C2C(C#N)=C(N)Oc3c2ccc(N)c3O)cc(Br)c1OC` (centres unmarked) [Example 74, 2-Amino-3-cyano-7-amino-8-hydroxy-4-(3-bromo-4,5-dimethoxyphenyl)-4H-chromene], in assay [1], the “Caspase activity (Ratio) T-47D” value was 7.4. Moreover, the EC50 in assay [1] (Homo sapiens, T47D, 24 h) was 149 nM; in assay [2] (Homo sapiens, ZR-75-1, 24 h), 99.3 nM. Also, the “Caspase activity (Ratio) ZR-75-1” value in assay [2] is 8.9.

Consider `CNC1=C(C#N)C(c2cc(Br)c(OC)c(OC)c2)c2ccc3ccn(C)c3c2O1` (centres unmarked) [Example 76, 3-Cyano-4-(3-bromo-4,5-dimethoxyphenyl)-2-methylamino-9-methyl-4H-pyrrolo[3,2-h]chromene], for which the “Caspase activity (Ratio) T-47D” value in assay [1] was 2.0. Moreover, the EC50 is over 10000 nM in assay [1] (Homo sapiens, T47D, 24 h) and 4100 nM in assay [2] (Homo sapiens, ZR-75-1, 24 h). In addition, the “Caspase activity (Ratio) ZR-75-1” value in assay [2] was found to be 2.3.

For `COc1cc(C2C(C#N)=C(N)Oc3c2ccc2ccn(C)c32)cc(Br)c1OC` (centres unmarked) [Example 77, 2-Amino-4-(3-bromo-4,5-dimethoxyphenyl)-3-cyano-9-methyl-4H-pyrrolo[3,2-h]chromene], the “Caspase activity (Ratio) T-47D” value in assay [1] stood at 4.2. In addition, the EC50 in assay [1] (Homo sapiens, T47D, 24 h) worked out at 27.7 nM; in assay [2] (Homo sapiens, ZR-75-1, 24 h), 23.9 nM. Moreover, the “Caspase activity (Ratio) ZR-75-1” value in assay [2] stood at 3.1.

In the case of `COc1cccc(C2C(C#N)=C(N)Oc3c2ccc2nccnc32)c1` (centres unmarked) [Example 78, 2-Amino-3-cyano-4-(3-methoxyphenyl)-4H-pyrazino[2,3-h]chromene], in assay [1], the “Caspase activity (Ratio) T-47D” value is on record as 1.8 and the EC50 is over 1000 nM. Besides, in assay [2], the “Caspase activity (Ratio) ZR-75-1” value was determined as 3.6 and the EC50 was 537 nM.

Regarding `COc1cc(C2C(C#N)=C(N)Oc3c2ccc2nccnc32)cc(Br)c1OC` (centres unmarked) [Example 79, 2-Amino-3-cyano-4-(3-bromo-4,5-dimethoxy-phenyl)-4H-pyrazino [2,3-h]chromene], in assay [1], the “Caspase activity (Ratio) T-47D” value came out at 8.3 and the EC50 worked out at 209 nM. In assay [2], the “Caspase activity (Ratio) ZR-75-1” value stood at 10.2 and the EC50 is 103 nM.

In the case of `COc1cc(C2C(C#N)=C(N)Oc3c2ccc2[nH]c(=O)[nH]c32)cc(Br)c1OC` (centres unmarked) [Example 80, 2-Amino-3-cyano-4-(3-bromo-4,5-dimethoxy-phenyl)-8-oxo-4,7,8,9-tetrahydroimidazo[4,5-h]chromene], in assay [1], the “Caspase activity (Ratio) T-47D” value came out at 8.8 and the EC50 worked out at 50.5 nM. In assay [2], the “Caspase activity (Ratio) ZR-75-1” value is listed as 7.5 and the concentration for a half-maximal effect (EC50) turned out to be 21.5 nM.

(Values after patent US20060035925A1, “SUBSTITUTED 4H-CHROMENES AND ANALOGS AS ACTIVATORS OF CASPASES AND INDUCERS OF APOPTOSIS AND THE USE THEREOF” (Cytovia, Inc., priority 1999, published 2006).)
